Test [1] has as its target T1, G12D mutant K-Ras protein (Homo sapiens, UniProt P01116, G12D).
T1 construct: expressed in transfected cells; host or cells: HeLa
The test is described as follows: Degradation (knockdown) of G12D mutant K-Ras protein forcibly expressed in HeLa cells, FACS analysis. The class given is cell-based.
Method: HeLa cells into which the plasmid had been introduced were seeded in a 24-well plate at a cell density of 4×10^4 cells/well, and then cultured under conditions of 37° C. and 5 vol % CO2 for 40 hours.
DMSO was used as a control.

For the next test, the target named is T2, wild-type K-Ras protein (Homo sapiens, UniProt P01116).
T2 construct: expressed in transfected cells; host or cells: HeLa
In words: Degradation (knockdown) of wild-type K-Ras protein forcibly expressed in HeLa cells, FACS analysis. The class given is cell-based. The note with it: FIG. 1. On the procedure: In Example 2, degradation (knockdown) of a wild-type K-Ras protein forcibly expressed in HeLa cells (human cervical cancer cells) through TUS-007 was evaluated by FACS analysis. […] The full-length cDNA clone (Accession No. AK292510) of a human K-ras gene was purchased from Independent Administrative Institution, the National Institute of Technology and Evaluation. PCR amplification was performed using KOD-Plus-Neo (TOYOBO CO., LTD) as a PCR enzyme. The plasmid was introduced into HeLa cells to transiently overexpress a wild-type K-Ras protein (specifically, a fusion protein of a wild-type K-Ras protein and GFP via a HA tag) or a DsRed protein for comparison in the […] (Wako Pure Chemical Industries, Ltd.) as a transfection reagent was used to introduce the plasmid into HeLa cells by a routine procedure. […] Culture was performed for 40 hours after introduction of the plasmid, and then TUS-007 was added to HeLa cells as follows. […] A BD FACSCantoTM II (BD Biosciences) was used for flow cytometry, and the expression levels of GFP and the DsRed protein in the cells were quantified. […] The GFP/DsRed ratio per cell was computed using an analysis software FlowJoTM (TOMY Digital Biology Co., Ltd.), and degradation (knockdown) of the wild-type K-Ras protein by TUS-007 was determined from a shift in a graph.
In general terms: Flow cytometry measures light scatter and fluorescence of single cells or particles in a stream.

T1 sequence (P01116 1-188 isoform P01116-2 G12D): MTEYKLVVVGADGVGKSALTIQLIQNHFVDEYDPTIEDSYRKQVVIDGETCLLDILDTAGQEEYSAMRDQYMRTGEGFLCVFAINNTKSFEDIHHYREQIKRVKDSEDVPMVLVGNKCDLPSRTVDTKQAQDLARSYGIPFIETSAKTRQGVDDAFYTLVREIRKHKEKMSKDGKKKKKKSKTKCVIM
T2 sequence (P01116 1-188 isoform P01116-2): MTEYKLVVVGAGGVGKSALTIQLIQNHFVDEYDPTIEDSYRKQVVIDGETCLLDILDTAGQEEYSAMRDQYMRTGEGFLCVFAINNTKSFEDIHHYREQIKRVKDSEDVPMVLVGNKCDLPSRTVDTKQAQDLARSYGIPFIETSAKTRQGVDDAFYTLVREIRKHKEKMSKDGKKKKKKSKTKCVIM

Take `CCC(C)[C@H](NC(=O)CCCCCCNC(=O)[C@H](CC(C)C)NC(=O)CNC(=O)c1cc(Cl)ccc1Cl)C(=O)Nc1ccc2[nH]c(Cc3c[nH]c4ccccc34)nc2c1` (stereo in doubt) [TUS-007]: the “degradation of the G12D mutant K-Ras protein when both TUS-007 and MLN2238 were added” value in test [1] (HeLa cells, MLN2238 co-added, compared with TUS-007 alone, FIG. 3) is “G12D mutant and G12V mutant K-Ras protein degradation was inhibited”. Also, the “degradation (knockdown) of the G12D mutant K-Ras protein (shift of GFP/DsRed ratio graph)” value in test [1] (HeLa cells, vs control (DMSO), FIG. 3) was “degradation of the G12D mutant and the G12V mutant K-Ras protein was induced”. For the same molecule, the “comparison of degradation induction among wild-type, G12D mutant and G12V mutant K-Ras protein” value in test [1] (from the results of FIGS. 1 and 3) was “excellent in inducing the degradation of the G12D mutant K-Ras protein”. Moreover, the “degradation (knockdown) of the wild-type K-Ras protein (shift of GFP/DsRed ratio graph)” value on wild-type K-Ras protein (24 hours after addition, vs control (DMSO)) was “degradation of the wild-type K-Ras protein was induced”. Also, the “degradation of the wild-type K-Ras protein when both TUS-007 and MLN2238 were added” value at wild-type K-Ras protein (MLN2238 co-added, compared with TUS-007 alone) is listed as “degradation of the wild-type K-Ras protein was inhibited”.

The values are drawn from patent US11052154B2, “Ras protein degradation inducing molecule and pharmaceutical composition” (Tokyo University of Science Foundation, priority 2016, dated 2021).
